Source: patent US11814402B2, “Binuclear palladacycles and their use in the treatment of cancer” (Stellenbosch University, priority 2019, dated 2023)

Experiments:
[1] = Turbidimetric assay - solubility in 10% DMSO:PBS; assay type: physicochemical; settings: for aqueous solubility (in words): aqueous media
Description: A 0.01 M pH 7.4 Phosphate Buffered Saline (PBS) solution was prepared by dissolving one PBS tablet (Sigma-Aldrich) in 200 mL distilled water at 25° C. to yield a buffered solution containing 0.01 M phosphate buffer, 0.003 M KCl and 0.14 M NaCl. The solution equilibrated at 25° C. for one hour upon which the pH was confirmed.
A preparation plate (96-well flat bottomed) was prepared by serially diluting the compound to achieve the desired concentrations (5.0 μM to 200 μM). The test plate was prepared by pipetting […] into wells 7-12. Each compound was tested in triplicate thus a single plate could be used to evaluate two compounds. […] of each compound concentration was pipetted from the preparation plate into the test plate to bring the total volume up to 200 μL and to ensure that a 10% (v/v) DMSO/PBS solution is achieved. Test plates were prepared in duplicate and one plate was incubated at room temperature (25° C.) and the second at physiological temperature (37° C.). Both test plates were incubated for 2 hours upon which the UV-Vis absorbance readings were measured at 620 nm. The corrected absorbance readings were obtained by subtracting the blank readings from each concentration absorbance.

[2] = system: human breast adenocarcinoma MDA-MB-231 (estrogen receptor negative) cells; test: Cytotoxicity (MTT) assay, MDA-MB-231; assay type: cell-based; settings: 48 hours treatment
Description: (§1) These included cell viability tests using a MTT assay, and in some cases Western blots to test for DNA damage using γ-H2AX and PARP cleavage to determine whether or not apoptosis takes place.
The complex solutions were prepared by dissolution in DMSO to obtain 5 mM stock solutions. Solutions were stored at room temperature for no more than a week. […] After 48 hours, the cells were treated with various concentrations of complex (0-1 μM) or the vehicle for 48 hours. The 3-(4,5-dimethylthiazol-2-yl)-2,5-diphenyltetrazolium bromide (MTT) assay was then used, as described by the manufacturer's instructions: 10 μL of MTT solution was added to each well. Well plates were then incubated at 37° C. for 4 h. This was followed by addition of 100 μL solubilisation buffer (10% SDS in 0.01 M HCl) and incubation overnight at 37° C. Absorbance at 585 nm was then determined for each well and the mean cell viability was calculated as a percentage of the mean vehicle control. The experiments were performed in triplicate and the data were used to determine the half maximal inhibitory concentration values (IC50).

[3] = system: human breast adenocarcinoma MCF-7 (estrogen receptor positive) cells; test: Cytotoxicity (MTT) assay, MCF-7; assay type: cell-based; settings: 48 hours treatment
Description: as §1
The complex solutions were prepared by dissolution in DMSO to obtain 5 mM stock solutions. Solutions were stored at room temperature for no more than a week. […] The 3-(4,5-dimethylthiazol-2-yl)-2,5-diphenyltetrazolium bromide (MTT) assay was then used, as described by the manufacturer's instructions: 10 μL of MTT solution was added to each well. Well plates were then incubated at 37° C. for 4 h. This was followed by addition of 100 μL solubilisation buffer (10% SDS in 0.01 M HCl) and incubation overnight at 37° C. Absorbance at 585 nm was then determined for each well and the mean cell viability was calculated as a percentage of the mean vehicle control. The experiments were performed in triplicate and the data were used to determine the half maximal inhibitory concentration values (IC50).

[4] = system: oestrogen receptor positive MCF7 breast cancer cells; settings: prior report on AJ5; read-out: IC50 MCF-7; cited from earlier work
ME1402 melanoma cells = settings: Biochem. Pharmacol. 2013, 86, 1650; read-out: IC50 proliferation ME1402 melanoma cells; cited from earlier work
[5] = system: oestrogen receptor negative MDA-MB-231 breast cancer cells; settings: prior report on AJ5; cited from earlier work
WM1158 melanoma cells = settings: Biochem. Pharmacol. 2013, 86, 1650; read-out: IC50 proliferation WM1158 melanoma cells; cited from earlier work
[6] = Solubility in DMSO and DMSO/water (characterisation data); settings: for Solubility: DMSO: in DMSO; for behaviour on addition of water / aqueous medium: test medium
[7] = system: MCF 7 breast cancer cell line tumour; test: In vivo anti-tumour activity, MCF 7 (chick embryo model)
Description: (§2) The activity of BTC2 was evaluated in two breast cancer cell lines (MCF 7 and MDA-MB-231). The latter is an aggressive, metastatic cell line in which metastasis is often difficult to prevent or control.
(§3) Metastasis is the process of the spreading of the cancer from its site of origin to other parts of the body. This was evaluated using the same chick embryo model as mentioned above, and again compared to the known drug, paclitaxel.

[8] = system: MDA-MB 231 breast cancer cell line metastasis; test: Metastasis reduction, MDA-MB 231 (chick embryo model); assay type: in vivo
Description: The ability of BTC2 to prevent metastasis was also evaluated.
as §3
When tested in the aggressive breast cancer cell line, MDA-MB 231, BTC2 was able to induce a 46% reduction in metastasis compared to 64% reduction for paclitaxel.

γ-H2AX in MCF7 cells = test: Western blot, γ-H2AX (DNA damage); assay type: cell-based, human; settings: treatment for 24 and 48 hours
Description: The complex solutions were prepared by dissolution in DMSO to obtain 0.1 and 0.2 μM stock solutions. Solutions were stored at room temperature for no more than a week. Human MCF7 breast adenocarcinoma cells in RPMI 1640 medium were plated in 6 cm petri dishes at 6×10^5 cells per plate. The cells were treated with the complex solutions for 24 or 48 hours. Cells were then lysed using whole cell lysis buffer (0.5 M tris-HCl, pH 6.8, 2% SDS, 10% glycerol, 1% β-mercaptoethanol and 0.02% bromophenol blue). Samples were boiled for 10 minutes. The proteins were resolved using SDS/PAGE (8-15% gels) as required. They were then transferred to Hybond ECL membranes which were then incubated with primary antibodies against PARP ½ (sc-7150), phospho-H2AX (#2577) and p38 (M000). Thereafter, the membranes were incubated with HRP-conjugated secondary antibodies (1:5000). The antibody-reactive proteins were visualised with a chemiluminescence reaction (ECL) detection system.
The most important proteins which are employed as markers for potential anti-cancer drugs are γ-H2AX, which, if present, is an indication of DNA damage and PARP, which if cleaved, is an indication that apoptosis has been induced. In order to allow for relative quantification of the proteins being detected, a loading control, P38, was used to ensure that loading discrepancies are not interpreted as drug-induced changes.

[9] = system: MDA-MB-231 breast cancer cell line tumour; test: In vivo anti-tumour activity, MDA-MB-231 (chick embryo model); settings: MDA-MB-231, about half the concentration of paclitaxel
Description: as §2
Again, BTC2 was used at about half the concentration of the control, paclitaxel.
as §3

[10] = turbidimetric assay, 10% DMSO:PBS pH 7.4, 37° C., 2 hours incubation

Q: With `CC(C)c1cccc(C(C)C)c1[N+]1=Cc2ccc(OCCO)c[c]2[Pd-2]1([Cl])[P+](CC[P+](c1ccccc1)(c1ccccc1)[Pd-2]1([Cl])[c]2cc(OCCO)ccc2C=[N+]1c1c(C(C)C)cccc1C(C)C)(c1ccccc1)c1ccccc1` (centres unmarked) [BTC5, [(PdCl{4-(2-hydroxyethoxy})CH═N{2,6-^iPr2-C6H3})2(μ-Ph2P(CH2)2PPh2)]] as the compound, how does the solubility at 2 h ([1]; 10% DMSO:phosphate buffered saline, aqueous with cosolvent or surfactant or cyclodextrin, kinetic from dmso stock, turbidimetric assay, 10% DMSO:PBS pH 7.4, 37° C., 2 hours incubation) read?
A: Its solubility at 2 h is 13.3 to 26.6 µg/mL.

Q: For “[(PdCl{4-[2-(2-hydroxyethoxy)ethoxy]}CH═N{2,6-^iPr2-C6H3})2(μ-Ph2P(CH2)3PPh2)] [BTC3]”, which IC50 [2] is on record?
A: The IC50 was 2300 ± 190 nM.

Q: What about the IC50 [3] of the same compound?
A: Its IC50 is 2500 ± 260 nM.

Q: With `CC(C)c1cccc(C(C)C)c1[N+]1=Cc2cccc[c]2[Pd-2]1([Cl])[P+](C[P+](c1ccccc1)(c1ccccc1)[Pd-2]1([Cl])[c]2ccccc2C=[N+]1c1c(C(C)C)cccc1C(C)C)(c1ccccc1)c1ccccc1` (centres unmarked) [BC1] as the compound, how does the IC50 [2] read?
A: The IC50 was 2200 ± 190 nM.

Q: What about the “Solubility in 10% DMSO:PBS at 37° C.” value [1, 10] of the same compound?
A: The value was 10.21 to 20.41 µg/mL.

Q: What about the IC50 [3] of the same compound?
A: The IC50 was 2700 ± 210 nM.

Q: Which results are given for `CC(C)c1cccc(C(C)C)c1[N+]1=Cc2cccc[c]2[Pd-2]1([Cl])[P+](CC[P+](c1ccccc1)(c1ccccc1)[Pd-2]1([Cl])[c]2ccccc2C=[N+]1c1c(C(C)C)cccc1C(C)C)(c1ccccc1)c1ccccc1` (centres unmarked) [AJ5]?
A: IC50 [4]: 175 nM; IC50 (ME1402 melanoma cells): 190 nM; IC50 [5]: 193 nM; IC50 [2]: 190 ± 15 nM; aqueous solubility (in words) [1]: poor solubility; Solubility in 10% DMSO:PBS at 37° C. [1, 10]: 5.98 to 11.97 µg/mL; IC50 (WM1158 melanoma cells): 200 nM; IC50 [3]: 180 ± 48 nM

Q: Which “IC50 MDA-MB-231” value [2] does the source give for `CC(C)c1cccc(C(C)C)c1[N+]1=Cc2ccc(OCCOCCO)c[c]2[Pd-2]1([Cl])[P+](c1ccccc1)(c1ccccc1)[c-]1cccc1.CC(C)c1cccc(C(C)C)c1[N+]1=Cc2ccc(OCCOCCO)c[c]2[Pd-2]1([Cl])[P+](c1ccccc1)(c1ccccc1)[c-]1cccc1.[Fe+2]` (centres unmarked) [BTC4, [(PdCl{4-[2-(2-hydroxyethoxy)ethoxy]}CH═N{2,6-^iPr2-C6H3})2(μ-Ph2P(C5H4)Fe(C5H4)PPh2]] here?
A: Its value is “Inactive”.

Q: What about the “Solubility: % DMSO in water” value [6] of the same compound?
A: The value was 98 % DMSO in water.

Q: What about the “Solubility: DMSO” value [6] of the same compound?
A: The value was 53700 µg/mL.

Q: What about the “behaviour on addition of water / aqueous medium” value [6] of the same compound?
A: The value was “completely intolerant of water”.

Q: What about the “aqueous solubility (in words)” value [1] of the same compound?
A: Its value is “highly insoluble”.

Q: What about the “IC50 MCF-7” value [3] of the same compound?
A: Its value is “Inactive”.

Q: With `CC(=O)O[C@H]1C(=O)[C@@]2(C)[C@H]([C@H](OC(=O)c3ccccc3)[C@]3(O)C[C@H](OC(=O)[C@H](O)[C@@H](NC(=O)c4ccccc4)c4ccccc4)C(C)=C1C3(C)C)[C@]1(OC(C)=O)CO[C@@H]1C[C@@H]2O` [paclitaxel] as the compound, how does the tumour regression ([7]; MCF 7, concentration 50 μM) read?
A: Its tumour regression is 26%.

Q: What about the reduction in metastasis ([8]; MDA-MB 231, 50 μM) of the same compound?
A: The reduction in metastasis was 64%.

Q: With “[(PdCl{4-[2-(2-hydroxyethoxy)ethoxy]}CH═N{2,6-^iPr2-C6H3})2(μ-Ph2P(CH2)2PPh2)] [BTC2]” as the compound, how does the tumour regression ([7]; MCF 7, concentration 24.5 μM) read?
A: Its tumour regression is 21%.

Q: And the “γ-H2AX (Western blot)” value (γ-H2AX in MCF7 cells)?
A: The value was “significant amount of γ-H2AX”.

Q: What about the reduction in metastasis ([8]; MDA-MB 231, 24.4 μM) of the same compound?
A: Its reduction in metastasis is 46%.

Q: What about the “tumour reduction (in words)” value [9] of the same compound?
A: The value was “able to induce tumour reduction”.

Q: And the IC50 [2]?
A: Its IC50 is 580 ± 12 nM.

Q: What about the “Solubility: % DMSO in water” value [6] of the same compound?
A: Its value is 76 % DMSO in water.

Q: What about the “Solubility: DMSO” value [6] of the same compound?
A: Its value is 32600 µg/mL.

Q: And the “Solubility in 10% DMSO:PBS at 37° C.” value [1, 10]?
A: The value was 28.38 to 56.77 µg/mL.

Q: What about the IC50 [3] of the same compound?
A: Its IC50 is 490 ± 20 nM.

Q: Which IC50 [2] does the source give for `CC(C)c1cccc(C(C)C)c1[N+]1=Cc2cccc[c]2[Pd-2]1([Cl])[P+](CCC[P+](c1ccccc1)(c1ccccc1)[Pd-2]1([Cl])[c]2ccccc2C=[N+]1c1c(C(C)C)cccc1C(C)C)(c1ccccc1)c1ccccc1` (centres unmarked) [BC3] here?
A: Its IC50 is 5000 ± 75 nM.

Q: And the “Solubility in 10% DMSO:PBS at 37° C.” value [1, 10]?
A: The value was 6.12 to 12.25 µg/mL.

Q: What about the IC50 [3] of the same compound?
A: The IC50 was 5800 ± 280 nM.

Q: For `CC(C)c1cccc(C(C)C)c1[N+]1=Cc2cccc[c]2[Pd-2]1([Cl])[P+](c1ccccc1)(c1ccccc1)[c-]1cccc1.CC(C)c1cccc(C(C)C)c1[N+]1=Cc2cccc[c]2[Pd-2]1([Cl])[P+](c1ccccc1)(c1ccccc1)[c-]1cccc1.[Fe+2]` (centres unmarked) [BC4], which “IC50 MDA-MB-231” value [2] is on record?
A: The value was “Inactive”.

Q: And the “behaviour on addition of water / aqueous medium” value [6]?
A: The value was “completely intolerant of water”.

Q: And the “Solubility in 10% DMSO:PBS at 37° C.” value [1, 10]?
A: Its value is 13.65 to 27.30 µg/mL.

Q: And the “IC50 MCF-7” value [3]?
A: The value was “Inactive”.
